Results as given in patent US20130210804A1, “TRICYCLIC MGLUR5 RECEPTOR MODULATORS” (priority 2010, published 2013).
pEC50: −log10 of the molar value. Like-named read-outs stand apart in the source and are kept apart here. One block for each molecule: values may come before it.

Target: T1, human mGluR5A (Homo sapiens, UniProt P41594)
T1 construct: expressed in transfected cells; host or cells: CHO (Chinese Hamster Ovary) cells, kept under Puromycin and Zeocin selection
Assay: Fluorescent Ca2+ mobilization (FLIPR) assay, potentiation of a sub-threshold (EC20, 300 nM) glutamate response
Format: cell-based
Conditions: CHO cells expressing human mGluR5A, potentiation in the presence of 300 nM glutamate
Source text: The utility of the compounds in accordance with the present invention as positive allosteric modulators of metabotropic glutamate receptor activity, in particular mGluR5 activity, may be readily determined without undue experimentation by methodology well known in the art, including O'Brien et al., Molecular Pharmacology 2003, 64(3) 731-740. In particular, the compounds of the following examples had activity in reference assays by enhancing mGluR5 activity. […] Changes in intracellular Ca^2+ were measured with Fluo-4AM ester (Invitrogen/Molecular Probes), which was detected on a Fluorometric Imaging Plate Reader (FLIPR, Molecular Devices, Sunnyvale, Calif.). In a typical experiment the mGluR5 positive allosteric modulatory activity of the compounds of the present invention was determined in accordance with the following experimental method.
Chinese Hamster Ovary (CHO) cells expressing human mGluR5A were maintained in growth medium containing DMEM, 10% dialyzed Fetal Bovine Serum, 50 units/mL Penicillin, 50 ug/mL Streptomycin, 2 mM L-glutamine, 1×MEM non-essential amino acids, 1 mM sodium pyruvate, 25 mM HEPES, 55 uM 2-mercaptoethanol, 5 ug/mL Puromycin, and 250 ug/mL Zeocin at 37° C. and 5% CO2. The day before the experiment, the cells were washed and seeded in “plating media” containing only DMEM, 10% dialyzed Fetal Bovine Serum, 50 units/mL Penicillin, and 50 ug/mL Streptomycin at a density of 50,000 cells/well (100 uL/well) in black 384-well clear-bottom PDL-coated plates. The cells were grown overnight at 37° C. and 6% CO2. This overnight glutamine/glutamate starvation allowed for consistent expression of the mGluR5A receptor, and the ability to add a known amount of agonist (glutamate in most cases) on the day of the experiment.
The day of the experiment, the cells were washed with 37° C. Assay Buffer (Hanks Balanced Salt Solution with CaCl2 and MgCl2, 20 mM HEPES, 2.5 mM Probenecid, 0.1% BSA) with an automated plate washer (3×100 uL, aspiration 3 mm from bottom leaving ˜30 uL of buffer in each well). After washing, 30 uL of dye loading buffer (4 uM Fluo-4AM, 0.04% Pluronic acid, and 1% dialyzed FBS in assay buffer) were added to each well of the plates for 2 uM Fluo-4AM final concentration. The plates were incubated at 37° C. and 6% CO2 for 1 hour to allow for dye loading. After dye loading, the cells were washed again as above, and placed on the FLIPR. Assays were conducted with two possible scenarios: 1) To determine the potencies of the compounds, as either agonists of mGluR5 or potentiators of mGluR5 in the presence of a sub-threshold amount of glutamate, 10-point titrations of the compounds (1:3 dilution between each point, 30-0.0015 uM final concentrations) were added to the cells, followed by the addition of the EC20 of glutamate (300 nM) to the cells. 2) To determine the cooperativity of the compounds with the natural agonist (glutamate), single concentrations of the compounds were added to the cells, followed by the addition of a 10-point titration of glutamate (1:3 dilution between each point, 1000-0.05 uM final concentrations). […] For both scenarios above, operation of the FLIPR was the same. Baseline fluorescence was monitored for 10 seconds, followed by the addition of compounds diluted in Assay Buffer (1% DMSO concentration after this addition, 0.66% final DMSO concentration after agonist addition). After monitoring fluorescence for 5 minutes, during which time any intrinsic agonist activity of the compounds would have been detected, the agonist (glutamate) also diluted in assay buffer was then added to the cells. The response was then monitored for an additional 3 minutes. In scenario #1, the peak during the final 3 minutes was used for potentiator data, and the peak during the 5 minutes post compound addition was used for compound agonist data. […]

[1] = about/generally, read-out: EC50 for potentiating/enhancing the mGluR5 receptor in the FLIPR assay
[2] = inflection points, read-out: Representative FLIPR EC50 Values

T1 sequence (P41594 21-1180 isoform P41594-2 limits assumed): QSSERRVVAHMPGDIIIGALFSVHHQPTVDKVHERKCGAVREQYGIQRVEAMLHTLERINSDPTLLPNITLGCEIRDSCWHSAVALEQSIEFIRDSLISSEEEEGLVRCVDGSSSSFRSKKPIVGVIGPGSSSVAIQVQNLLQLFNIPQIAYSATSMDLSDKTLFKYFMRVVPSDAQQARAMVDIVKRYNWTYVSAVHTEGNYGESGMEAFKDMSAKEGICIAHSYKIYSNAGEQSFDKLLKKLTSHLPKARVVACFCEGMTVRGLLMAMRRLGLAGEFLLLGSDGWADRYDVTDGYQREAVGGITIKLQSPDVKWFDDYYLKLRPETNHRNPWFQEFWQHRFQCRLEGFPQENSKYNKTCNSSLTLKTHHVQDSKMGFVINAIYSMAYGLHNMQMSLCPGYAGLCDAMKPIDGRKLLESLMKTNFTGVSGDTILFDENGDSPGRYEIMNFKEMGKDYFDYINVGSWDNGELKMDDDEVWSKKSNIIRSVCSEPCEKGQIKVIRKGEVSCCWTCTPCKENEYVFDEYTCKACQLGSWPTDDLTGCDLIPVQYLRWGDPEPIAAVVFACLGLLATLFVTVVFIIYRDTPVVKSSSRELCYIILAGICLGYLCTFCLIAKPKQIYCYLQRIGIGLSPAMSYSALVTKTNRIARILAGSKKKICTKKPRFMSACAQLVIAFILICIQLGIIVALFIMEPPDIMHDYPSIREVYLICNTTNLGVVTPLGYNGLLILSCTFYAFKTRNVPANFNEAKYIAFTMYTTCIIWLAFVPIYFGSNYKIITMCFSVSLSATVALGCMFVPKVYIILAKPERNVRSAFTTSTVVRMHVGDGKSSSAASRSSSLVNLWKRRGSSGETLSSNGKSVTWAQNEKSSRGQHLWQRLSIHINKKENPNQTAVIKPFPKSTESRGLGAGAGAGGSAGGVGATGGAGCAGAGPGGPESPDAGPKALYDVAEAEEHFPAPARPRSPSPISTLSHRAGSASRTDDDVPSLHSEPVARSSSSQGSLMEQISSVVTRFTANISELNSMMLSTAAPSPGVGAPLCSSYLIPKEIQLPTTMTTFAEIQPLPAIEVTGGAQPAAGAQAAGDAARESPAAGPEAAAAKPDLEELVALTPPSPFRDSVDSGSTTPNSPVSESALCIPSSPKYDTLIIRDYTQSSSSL

Structure (SMILES): Cc1c[nH]c(-c2noc(C3CCC4C=Cc5ccccc5C(=O)N4C3)n2)c1 (racemic) [Example 7-7, (±) cis-(Z)-3-[3-(4-methyl-1H-pyrrol-2-yl)-1,2,4-oxadiazol-5-yl]-1,3,4,12a-tetrahydropyrido[1,2-b][2]benzazepin-6(2H)-one]
pEC50 [1]: > 6.00
pEC50 [2]: 7.51

Structure (SMILES): Cc1c[nH]c(-c2noc([C@H]3CC[C@H]4CCc5ccccc5C(=O)N4C3)n2)c1 [Example 1-5, cis-(3S,12aS)-3-(3-(4-Methyl-1H-pyrrol-2-yl)-1,2,4-oxadiazol-5-yl)-1,3,4,11,12,12a-hexahydrobenzo[e]pyrido[1,2-a]azepin-6(2H)-one]
pEC50 [1]: > 6.00
pEC50 [2]: 7.80

Structure (SMILES): O=C1c2ccc(F)cc2CC[C@@H]2CC[C@H](c3nc(-c4cc(Cl)c[nH]4)no3)CN12 [Example 3-1, (3S,12aS)-9-Fluoro-3-[3-(4-chloro1H-pyrrol-2-yl)-1,2,4-oxadiazol-5-yl]-1,3,4,11,12,12a-hexahydropyrido[1,2-b][2]benzazepin-6(2H)-one]
pEC50 [1]: > 6.00
pEC50 [2]: 8.10

Second part, the molecule after the results:

pEC50 [1]: > 6.00
pEC50 [2]: 7.30
Structure (SMILES): N#Cc1ccc2c(c1)CCC1CCC(c3nc(-c4cc(Cl)c[nH]4)no3)CN1C2=O (racemic) [Example 18-1, (±) cis-9-cyano-3-[3-(4-chloro1H-pyrrol-2-yl)-1,2,4-oxadiazol-5-yl]-1,3,4,11,12,12a-hexahydropyrido[1,2-b][2]benzazepin-6(2H)-one]

pEC50 [1]: > 6.00
Structure (SMILES): O=C1c2ccc(F)cc2C(F)(F)C[C@@H]2CC[C@H](c3nc(-c4ccc(F)cn4)no3)CN12 (racemic) [Example 20-3, (±) cis-9,11,11-trifluoro-3-[3-(5-fluoropuridin-2-yl)-1,2-4-oxadiazol-5-yl]-1,3,4,11,12,12a-hexahydropyrido[1,2-b][2]benzazepin-6(2H)-one]

pEC50 [1]: > 6.00
Structure (SMILES): O=C1c2cnc(F)cc2CC[C@@H]2CC[C@H](c3noc(-c4ccc(F)cn4)n3)CN12 (single isomer, unassigned) [Example 24-6]

pEC50 [1]: > 6.00
pEC50 [2]: 7.15
Structure (SMILES): O=C1c2ccccc2OC[C@@H]2CC[C@H](c3nc(-c4cc(Cl)c[nH]4)no3)CN12 [Example 11-8, (6aS,9S)-9-[3-(4-chloro-1H-pyrrol-2-yl)-1,2,4-oxadiazol-5-yl]-6,6a,7,8,9,10-hexahydro-12H-pyrido[2,1-c][1,4]benzoxazepin-12-one]

pEC50 [1]: > 6.00
Structure (SMILES): COc1ccc2c(n1)CC[C@@H]1CC[C@H](c3nc(-c4cc(Cl)c[nH]4)no3)CN1C2=O [Example 13-2, (8S,10aS)-8-[3-(4-chloro-1H-pyrrol-2-yl)-1,2,4-oxadiazol-5-yl]-2-methoxy-8,9,10,10a,11,12-hexahydrodipyrido[1,2-a:2′,3′-e]azepin-5(7H)-one]
